This note sets out measurements from patent US9662329B2, “Use of survivin antagonists in polyomavirus-related disease” (University of Pittsburgh—Of the Commonwealth System of …, priority 2012, dated 2017).

The test system of data set [1] is human MKL-1 MCC xenografts. As for the experimental part:
Compounds were dissolved in sterile 0.9% saline solution for administration to animals.
Six-week-old female triple immune-deficient NSG (Nod-SCID gamma) mice (Jackson Laboratory) were maintained in a specific pathogen-free environment.
MCC cells were checked for viability >90% by trypan blue staining, resuspended in PBS (2×10^7 cells in 100 μl) and inoculated subcutaneously into the right flank of mice.
All treatments were delivered for three consecutive weeks. […] YM-155 (2 mg/kg) was given intraperitoneally on five consecutive days, followed by a two-day treatment free interval.
Two-tailed paired Student's t test was used to analyze statistical differences in qRT-PCR results. Mouse survival curves were estimated using the Kaplan-Meier product-limit method and were compared using the log-rank test (GraphPad Software, La Jolla, Calif.). A piecewise linear hierarchical Bayesian model (Zhao et al., Bayesian hierarchical changepoint methods in modeling the tumor growth profiles in xenograft experiments. Clinical Cancer Res 17, 1057 (Mar. 1, 2011)) was used to characterize differences in tumor volumes and growth between treatments.
Cells of Merkel cell polyomavirus (+) carcinoma cell lines MKL-1, MS-1, WaGa, and MKL-2 were checked for viability >90% by trypan blue staining, resuspended in PBS (2×10^7 cells in 100 μl) and inoculated subcutaneously into the right flank of mice.
YM-155 was given intraperitoneally on five consecutive days, followed by a two-day treatment free interval. For YM155 this treatment continued for three weeks or until mice were euthanized. Mice were euthanized upon showing a tumor having a diameter of 20 mm, or upon a showing of significant distress (>20% weight loss or when they became moribund). Caliper measurements of the longest perpendicular tumor diameters were performed every other day and tumor volumes were calculated using the formula: (width)^2×(length/2). Survival was defined as time from the first day of treatment until death/sacrifice.

The next data set has as its system MS-1. In words: Cell Titer Glo dose-response study. The data set is classed as cell-based, human. The following applies: Homo sapiens, MS-1, read-out: EC50 concentrations for MCC cell lines, MS-1. The source says:
(§1) Seven Merkel cell carcinoma cell lines: MKL-1, MKL-2, MS-1, UISO, MCC13, MCC26 and WaGa (kind gift of Jurgen Becker (Houben et al., Merkel cell polyomavirus-infected Merkel cell carcinoma cells require expression of viral T antigens. J Virol 84, 7064 (July, 2010); Ronan et al., Merkel cell carcinoma: in vitro and in vivo characteristics of a new cell line. J Am Acad Dermatol 29, 715 (November, 1993); Rosen et al., Establishment and characterization of a neuroendocrine skin carcinoma cell line. Lab Invest 56, 302 (March, 1987)); NCI-H69 small cell lung cancer cell line (ATCC); 293 human embryonic kidney cells (ATCC); U2OS osteosarcoma cell line (kind gift of Ole Gjoerup); BJhTERT immortalized foreskin fibroblast cell line (kind gift of Ole Gjoerup); and BJ primary foreskin fibroblasts (ATCC) were used to screen and evaluate the small molecules examined in this study (Houben et al., J Virol 84, 7064 (July, 2010); Ronan et al., J Am Acad Dermatol 29, 715 (November, 1993); Rosen et al., Lab Invest 56, 302 (March, 1987)). The Merkel cell lines and NCI-H69 were grown in RPMI 1640 supplemented with 10% fetal calf serum, penicillin and streptomycin at 37° C. in humidified air containing 5% CO2. The remaining cell lines were grown in DMEM supplemented with 10% fetal calf serum.
(§2) For EC50 measurements, dose-response curves were established for 17 drugs obtained individually in bulk stocks. Iodoacetamide (I1149), sanguarine chloride (S5890), NSC95397 (N1786), chelerythrine chloride (C2932), calmidazolium chloride (C3930), tetraethylthiuram disulfide (T1132), bay 11-7085 (B5681), quinacrine dihydro chloride (Q3251), ellipticine (E3380), amsacrine hydrochloride (A9809) and nutlin-3 (N6287) were purchased from Sigma Aldrich, USA.
(§3) Compounds that met the selection criteria <10% cell survival were purchased or obtained in bulk from NCI/NIH Developmental Therapeutics Program. Serial drug dilutions from 10^−4 M to 10^−9 M were used on MCC and non-MCC cell lines. Cells were seeded into 384-well plates at 6000 cells in 50 μl of medium per well. After 24 hours, 25 μl of 3× drugs were added at increasing concentration to each well. Cell viability was then measured using Cell Titer Glo (Promega) kit following manufacturer's instructions as described previously. Each drug concentration was tested in triplicate for each cell line and experiments were repeated twice. EC50 doses for the drugs were calculated using a four parameter logistic equation (GraphPad Prism).

The subject of a further data set is MKL-1. Put plainly: Cell Titer Glo dose-response study. The data set is classed as cell-based, human. The following applies: Homo sapiens, MKL-1, read-out: EC50 concentrations for MCC cell lines, MKL-1.
Text: as §1, §2, §3
(Cellular ATP, detected with luciferase, serves as a proxy for viable cell number.)

The next data set deals with WaGa. In words: Cell Titer Glo dose-response study. The data set is classed as cell-based, human. The following applies: Homo sapiens, read-out: EC50 concentrations for MCC cell lines, WaGa.
Text: as §1, §2, §3

In another data set the test system is MKL-2. Put plainly: Cell Titer Glo dose-response study. Particulars: Homo sapiens, read-out: EC50 concentrations for MCC cell lines, MKL-2. The data set is classed as cell-based, human.
Text: as §1, §2, §3

The subject of the next data set is UISO. Put plainly: Cell Titer Glo dose-response study. Format: cell-based, human. Particulars: Homo sapiens, read-out: EC50 concentrations for MCC cell lines, UISO.
Text: as §1, §2, §3

In data set [2] the test system is MKL-1 cells. Put plainly: Immunoblotting for cPARP, cCaspase 3 and LC3. Format: cell-based, human. Particulars: 100 nM, 48 hours.
The next data set concerns MCC cell lines. Put plainly: cells. The following applies: Homo sapiens, read-out: EC50, active in vitro at low doses. On the procedure: Serial drug dilutions from 10^−4 M to 10^−9 M were used on MCC and non-MCC cell lines. Cells were seeded into 384-well plates at 6000 cells in 50 μl of medium per well. After 24 hours, 25 μl of 3× drugs were added at increasing concentration to each well. Cell viability was then measured using Cell Titer Glo (Promega) kit following manufacturer's instructions as described previously. Each drug concentration was tested in triplicate for each cell line and experiments were repeated twice. EC50 doses for the drugs were calculated using a four parameter logistic equation (GraphPad Prism).

Data set [3] concerns MKL-1 cells. Put plainly: Cell cycle analysis (PI and BrdU staining). The data set is classed as cell-based, human. The following applies: 12 h, YM155 100 nM, camptothecin 1 μM. As for the experimental part: MKL-1 cells were treated with Accutase (Millipore) to break clumps and then resuspended in fresh medium containing drug and treated for 12 hours. Three hours before harvest 10 μM Bromodeoxyuridine (BrdU) was added. Cells were then harvested and fixed in chilled 70% ethanol and left overnight. The next day cells were washed, resuspended in 200 μl of 2M HCl/Triton X (1%) and incubated for 30 mins at room temperature. Cells were then centrifuged at 2000 rpm for 10 mins and neutralized in 200 μl of 0.1M sodium tetraborate, pH 8.5 solution. Cells were then washed, suspended in 20 μl of PBS containing 0.5% tween20, 1% donkey serum and 2ul of anti-BrdU antibody (1:10 diution, BD Biosciences) and incubated overnight at 4° C. Cells were then washed and incubated with secondary antibody-anti mouse Alexa488 (1:1000) for 1 hour at room temperature. Cells were finally washed, suspended in PBS containing 100 μg/ml of RNase A, 50 μg/ml of PI (propidium iodide) and 0.05% Triton X and incubated for 30 mins at 37° C. in the dark. The cells were then subjected to FACS using the accuri C6 flow cytometer (UPCI shared resources).

Where [4] appears, read: Example 2, 1 mg/kg for three weeks.
Setting [5] is: three weeks treatment, bortezomib 1 mg/kg twice weekly, YM155 2 mg/kg 5 times weekly.

In the case of `CC(C)C[C@H](NC(=O)[C@H](Cc1ccccc1)NC(=O)c1cnccn1)B(O)O` [Bortezomib], the “survival compared to saline” value in data set [1] (setting [4]) is listed as “survived as long as those receiving saline”. Moreover, the “time after treatment began at which the last animal died” value in [1] (setting [4]) is given as “approximately one month”. Further, in data set [1] (bortezomib 1 mg/kg twice weekly, YM155 2 mg/kg 5 times weekly), the “tolerability / adverse effects in mice” value was “associated with mouse lethargy and weight loss”. Moreover, in [1] (setting [5]), the “mice dying during treatment (up to day 19)” value came out at 67%. In [1] (setting [5]), the “xenograft tumor growth / progression during treatment” value is reported as “did not significantly affect MCC tumor progression or volume”. For the same molecule, the EC50 was 2 nM in the data set with MS-1; 13 nM with MKL-1; 1 nM with WaGa; 5 nM with MKL-2; 3 nM in the data set on UISO; 1.3 to 13.2 nM in the data set on MCC cell lines. Besides, the “apoptosis measured by caspase 3 and PARP cleavage” value in the data set on MKL-1 cells [2] is “activated PARP and caspase cleavage”.

Turning to `CC[C@@]1(O)C(=O)OCc2c1cc1n(c2=O)Cc2cc3ccccc3nc2-1` [camptothecin], the BrdU incorporation result in the data set on MKL-1 cells [3] was “accumulation of BrdU-positive cells in G1 and G2”.
